biological target: hepatitis C virus RNA dependant polymerase (NS5B) (Hepatitis C virus genotype 1b, UniProt P26663); experiment: Inhibition of NS5B RNA dependent RNA polymerase activity; format: biochemical; conditions: Table 1; HCV NS5B polymerase
Description: A suitable assay is described in the examples.
Inhibition of NS5B RNA Dependent RNA Polymerase Activity
The compounds of the invention were tested for inhibitory activity against the hepatitis C virus RNA dependant polymerase (NS5B), according to protocol described in WO 03/010141

Chain of hepatitis C virus RNA dependant polymerase (NS5B) (P26663 2420-3010): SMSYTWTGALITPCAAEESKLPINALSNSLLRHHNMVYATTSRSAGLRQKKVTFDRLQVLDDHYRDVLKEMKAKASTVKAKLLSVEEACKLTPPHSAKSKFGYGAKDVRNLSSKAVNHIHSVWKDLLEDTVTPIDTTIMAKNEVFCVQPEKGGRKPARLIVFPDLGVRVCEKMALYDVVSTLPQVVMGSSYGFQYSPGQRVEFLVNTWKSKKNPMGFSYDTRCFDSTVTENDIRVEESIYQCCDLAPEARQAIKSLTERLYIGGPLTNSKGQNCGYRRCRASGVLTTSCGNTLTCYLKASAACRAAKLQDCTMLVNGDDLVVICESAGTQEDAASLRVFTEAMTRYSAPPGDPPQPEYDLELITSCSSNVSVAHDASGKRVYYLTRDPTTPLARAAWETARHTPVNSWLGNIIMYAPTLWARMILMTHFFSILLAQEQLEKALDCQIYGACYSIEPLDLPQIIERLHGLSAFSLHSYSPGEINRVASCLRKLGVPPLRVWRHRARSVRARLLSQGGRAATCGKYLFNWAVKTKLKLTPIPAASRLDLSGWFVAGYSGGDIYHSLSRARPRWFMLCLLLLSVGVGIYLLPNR

Row | Structure (SMILES) | IC50
1 | O=C(Cn1c(-c2ccoc2)c(C2CCCCC2)c2ccc(C(=O)O)cc21)NCC1CCCO1 (stereo not drawn) [Example 1113] | 200 to 1000 nM
2 | CC(C)N1CCN(C(=O)Cn2c(-c3ccoc3)c(C3CCCCC3)c3ccc(C(=O)O)cc32)CC1 [Example 1125] | < 200 nM
3 | CC(C)NC(=O)Cn1c(-c2ccco2)c(C2CCCCC2)c2ccc(C(=O)O)cc21 [Example 1032] | 200 to 1000 nM
4 | CN(C)C(=O)[C@@H]1CCCN1C(=O)Cn1c(-c2ccoc2)c(C2CCCCC2)c2ccc(C(=O)O)cc21 [Example 1122] | < 200 nM
5 | O=C(Cn1c(-c2ccc(Br)cn2)c(C2CCCCC2)c2ccc(C(=O)O)cc21)N[C@@H](Cc1ccc(O)cc1)C(=O)O [Example 1133] | 200 to 1000 nM
6 | O=C(O)c1ccc2c(C3CCCCC3)c(-c3csc(N4CCCCC4)n3)n(CC(=O)N3CCOCC3)c2c1 [Example 1040] | 200 to 1000 nM
7 | CC(C)N(C(=O)Cn1c(-c2ccoc2)c(C2CCCCC2)c2ccc(C(=O)O)cc21)C(C)C [Example 1108] | 200 to 1000 nM
8 | CS(=O)(=O)NC(=O)Cn1c(-c2ccoc2)c(C2CCCCC2)c2ccc(C(=O)O)cc21 [Example 1013] | 200 to 1000 nM
9 | O=C(Cc1ccccc1)NNC(=O)Cn1c(-c2ccoc2)c(C2CCCCC2)c2ccc(C(=O)O)cc21 [Example 1117] | 200 to 1000 nM
10 | O=C(Cn1c(-c2ccoc2)c(C2CCCCC2)c2ccc(C(=O)O)cc21)Nc1ccc(C(=O)O)cc1 [Example 1061] | 200 to 1000 nM

same assay, conditions: Table 2; HCV NS5B polymerase

Row | Structure (SMILES) | IC50
11 | O=C(NS(=O)(=O)c1cccc(Cl)c1)c1ccc2c(C3CCCCC3)c(-c3ccoc3)n(CC(=O)N3CCOCC3)c2c1 [Example 2010] | < 200 nM
12 | O=C(NS(=O)(=O)c1c(Cl)nc2sccn12)c1ccc2c(C3CCCCC3)c(-c3ccoc3)n(CC(=O)N3CCOCC3)c2c1 [Example 2037] | < 200 nM
13 | CS(=O)(=O)NC(=O)c1ccc2c(C3CCCCC3)c(-c3ccoc3)n(CC(=O)N3CCOCC3)c2c1 [Example 2002] | < 200 nM
14 | O=C(NS(=O)(=O)c1cccc2cnccc12)c1ccc2c(C3CCCCC3)c(-c3ccoc3)n(CC(=O)N3CCOCC3)c2c1 [Example 2039] | < 200 nM
15 | O=C(NS(=O)(=O)c1ccc([N+](=O)[O-])cc1)c1ccc2c(C3CCCCC3)c(-c3ccoc3)n(CC(=O)N3CCOCC3)c2c1 [Example 2018] | < 200 nM

same assay, conditions: Table 4; class ranges

Row | Structure (SMILES) | IC50
16 | CC(C)Nc1nc(C2(NC(=O)c3ccc4c(C5CCCCC5)c(-c5ccoc5)n(CC(=O)N5CCC(N6CCCC6)CC5)c4c3)CCC2)cs1 [Example 4105] | 200 to 1000 nM
17 | CN1CCN(C(=O)Cn2c(-c3ccoc3)c(C3CCCCC3)c3ccc(C(=O)NCc4ccc(O)c(O)c4)cc32)CC1 [Example 4029] | < 200 nM
18 | CN1CCN(C(=O)Cn2c(-c3ccoc3)c(C3CCCCC3)c3ccc(C(=O)NC(C)(C)CO)cc32)CC1 [Example 4019] | 200 to 1000 nM
19 | COCC(C)NC(=O)c1ccc2c(C3CCCCC3)c(-c3ccoc3)n(CC(=O)N3CCN(C)CC3)c2c1 (stereo not drawn) [Example 4020] | 200 to 1000 nM
20 | CN1CCN(C(=O)Cn2c(-c3ccoc3)c(C3CCCCC3)c3ccc(C(=O)NCC4CC4)cc32)CC1 [Example 4034] | 200 to 1000 nM

same assay, conditions: Table 5; HCV NS5B polymerase

Row | Structure (SMILES) | IC50
21 | O=C(O)c1ccc2c(C3CCCCC3)c(-c3ccoc3)n(CCC(=O)N3CCOCC3)c2c1 [Example 5002] | 200 to 1000 nM
22 | C=C(C)Cn1c(-c2ccoc2)c(C2CCCCC2)c2ccc(C(=O)O)cc21 [Example 5007] | 200 to 1000 nM
23 | C=CCn1c(-c2ccoc2)c(C2CCCCC2)c2ccc(C(=O)O)cc21 [Example 5004] | 200 to 1000 nM

same assay, conditions: Table 7; class ranges

Row | Structure (SMILES) | IC50
24 | CNC(=O)c1ccc2c(c1)c(C1CCCCC1)c(-c1ccoc1)n2CC(=O)N1CCC(N2CCCC2)CC1 [Example 7034] | 1000 to 10000 nM
25 | O=C(NCC1CCCO1)c1ccc2c(c1)c(C1CCCCC1)c(-c1ccoc1)n2CC(=O)N1CCC(N2CCCC2)CC1 (stereo not drawn) [Example 7016] | 1000 to 10000 nM
26 | O=C(NC(CCO)c1ccccc1)c1ccc2c(c1)c(C1CCCCC1)c(-c1ccoc1)n2CC(=O)N1CCC(N2CCCC2)CC1 (stereo not drawn) [Example 7049] | 1000 to 10000 nM
27 | COc1ccc(CNC(=O)c2ccc3c(c2)c(C2CCCCC2)c(-c2ccoc2)n3CC(=O)N2CCC(N3CCCC3)CC2)cc1OC [Example 7028] | 1000 to 10000 nM

From US7888363B2, “Viral polymerase inhibitors” (Boehringer Ingelheim International GmbH, priority 2003, dated 2011)
